What all share (assay type): cell-based
The subject of experiment [1] is human duodenal enteroids. The experiment is described as follows: Immunofluorescence staining of hormones (SST, 5HT, GIP, CCK) in enteroids. The note with it: 14-day protocol. The procedure: (§1) Immunofluorescence staining was performed as previously described with minor modifications (Dekkers J F, Alieva M, Wellens L M, et al. Nat Protoc 2019; 14:1l756-1771)^32. Organoids were grown in and isolated from Matrigel® as noted above. 1-3 wells from a 24-well plate were washed in 200 μL of 1× phosphate-buffered saline (PBS) and moved in suspension to a 1.5 mL microcentrifuge tube. Each tube was centrifuged at 800×g for 5 minutes at 4° C. to pellet organoids. PBS was aspirated, and organoids were fixed in 200 μL of 4% paraformaldehyde (PFA) for 20 minutes on ice, shaking. Each tube was centrifuged again as above, and PFA was aspirated. The organoids were then resuspended in 500 μL of 0.3% Triton-X in PBS and moved to a 48-well plate for the remaining steps. The organoids were permeabilized for 30 minutes at room temperature, shaking. Between each step, organoids were allowed to settle to the bottom of each well, the plate was angled, and the solution aspirated by careful pipetting. Organoids were then blocked with 5% bovine serum albumin in PBS for 1.5 hours at room temperature, shaking. This was followed by three five-minute washes in 500 μL of PBS at room temperature, shaking.
Each well was then incubated in 200 μL of primary antibodies diluted in 5% BSA/0.1% Trition-X in PBS at 4° C. overnight. This was followed by five washes in 500 μL of 0.1% Triton-X in PBS for 15 minutes each at room temperature, shaking. 200 μL of secondary antibodies, including Alexa Fluor 488- or 647-conjugated anti-mouse (Invitrogen, A-21202, or A-31571, 1:400), Alexa Fluor 488-conjugated anti-rat (Invitrogen, A-21208, 1:400), Alexa Fluor 488-conjugated anti-goat (Invitrogen, A-11055, 1:400) or Alexa Fluor 647-conjugated anti-rabbit (Invitrogen, A-31573, 1:400), diluted in 0.1% Triton-X in PBS, which were then added to each well and incubated for two hours at room temperature, shaking. Organoids were then washed as above, then moved to new 1.5 mL centrifuge tubes. During the last wash, 4′,6-diamidino-2-phenylindole (DAPI, Life Technologies, D1306) was added at a concentration of 1:1000 for nuclear staining. Organoids were then centrifuged at 1000×g for 5 minutes at 4° C. to assist in removal of as much PBS as possible. Slides were prepared by drawing three circles with a hydrophobic pen (Vector Laboratories, H-4000). Enteroids were then resuspended in 20 μL of Prolong Gold Antifade mountant (Life Technologies, P36930), and droplets placed within hydrophobic circles. […]
This technique was adapted from a previously described method (Borten M A, Bajikar S S, Sasaki N, et al. Sci Rep 2018; 8:5319)^69. […] Any remaining clumped enteroids were manually separated prior to quantification. […]

The subject of experiment [2] is human duodenal enteroids. In words: qPCR analysis of enteroendocrine and lineage markers in enteroids. The note with it: time-course of AS-treated enteroids, RNA every two days. (Real-time PCR tracks product formation cycle by cycle.)
In experiment [3] the test system is human duodenal enteroids. In words: Hormone ELISA (5HT, GIP) of enteroid conditioned media. The note with it: last two days of differentiation. As for the experimental part:
Hormone quantification for GIP (MilliporeSigma, […]), GLP-1, PYY, and serotonin (Eagle Biosciences/DLD Diagnostika GmbH, SER39-KO1) and were performed using kits and following manufacturer's protocols. For these experiments, organoids were grown in 48-well plates to aid in concentrating the hormone of interest. Conditioned media was taken on day 14 of differentiation. For GIP quantification, Diprotin A (Tocris, 6019, 100 μM), a dipeptidyl peptidase 4 inhibitor, was added daily to the media for the last two days of differentiation to prevent GIP and GLP-1 degradation. For hormone induction studies, forskolin (Fsk) (10 μM) was added to fresh media 24-hours prior to conditioned media being taken. As an additional control, differentiation media not exposed to cells was also evaluated. This value was then subtracted from each experimental sample.
Background: An ELISA detects its analyte on a solid surface through an enzyme-linked reagent.

Experiment [4] deals with human duodenal enteroids. In words: Immunofluorescence staining of lineage markers CK20, MUC2, LYZ in enteroids. As for the experimental part:
as §1
Each well was then incubated in 200 μL of primary antibodies diluted in 5% BSA/0.1% Trition-X in PBS at 4° C. overnight. This was followed by five washes in 500 μL of 0.1% Triton-X in PBS for 15 minutes each at room temperature, shaking. 200 μL of secondary antibodies, including Alexa Fluor 488- or 647-conjugated anti-mouse (Invitrogen, A-21202, or A-31571, 1:400), Alexa Fluor 488-conjugated anti-rat (Invitrogen, A-21208, 1:400), Alexa Fluor 488-conjugated anti-goat (Invitrogen, A-11055, 1:400) or Alexa Fluor 647-conjugated anti-rabbit (Invitrogen, A-31573, 1:400), diluted in 0.1% Triton-X in PBS, which were then added to each well and incubated for two hours at room temperature, shaking. Organoids were then washed as above, then moved to new 1.5 mL centrifuge tubes. […]

Entries after “also recorded” stand apart in the source; their conditions may differ.

For `CCn1cc(C(=O)O)c(=O)c2c(N)c(F)c(NC3CCCCC3)cc21` [AS, AS1842856], in experiment [1], the “percentage of CCK-positive enteroids” value came to 4.5%, the “percentage of GIP-positive enteroids” value was 53%, the “percentage of enteroids containing SST-positive cells” value was 42% and the “percentage of enteroids with positive 5HT staining” value came out at 75%. For the same compound, in experiment [2], the “CHGA and SST transcript levels over time” value is recorded as “detectable transcript levels by the sixth day of differentiation”; the “NEUROD1 and NEUROG3 expression over time” value is recorded as “showed increased expression around the fourth day of differentiation”. In experiment [3], the “5HT secretion (ELISA of conditioned media)” value is “promoted serotonin (5HT) production and secretion; also recorded: higher levels of 5HT secretion than all other conditions”; the “GIP secretion (ELISA of conditioned media)” value was “no secretion of GIP”. In addition, in experiment [4], the “lysozyme (LYZ) immunofluorescence staining” value was “expressed” and the “mucin 2 (MUC2) immunofluorescence staining” value was “lesser degree”. In addition, the “cytokeratin 20 (CK20) immunofluorescence staining” value in experiment [4] (enterocyte marker) was “lesser degrees”.

These data come from US20230257715A1, “COMPOSITIONS AND METHODS FOR REGULATING ENTEROENDOCRINE CELL DIFFERENTIATION AND USES THEREOF” (The Children's Medical Center Corporation, priority 2020, published 2023).
